Reference: patent publication US11447505B1, “Pyrrolo[2,3-b]pyridine compounds and their use in the treatment of cancer” (priority 2017, dated 2022)
Like-named read-outs stand apart in the source and are kept apart here.

Experiments:
[1] = biological target: MRCKα (Homo sapiens (Human), UniProt Q5VT25); assay: MRCKα kinase assay (IMAP fluorescence polarization); type: biochemical
From the text: (§1) MRCKα, MRCKβ, ROCK1 and ROCK2 Kinase Assays

[2] = biological target: T1, MRCKβ (Homo sapiens (Human), UniProt Q9Y5S2); assay: MRCKβ kinase assay (IMAP fluorescence polarization); type: biochemical
From the text: as §1

[3] = biological target: ROCK2 (Homo sapiens (Human), UniProt O75116); assay: ROCK2 kinase assay (IMAP fluorescence polarization); type: biochemical
Method: MRCKα, MRCKβ, ROCK1 and ROCK2 assays were performed using an IMAP fluorescence polarization assay format (Molecular Devices Inc.). 8-12 nM of each kinase (Life Technologies) was incubated for 60 min at room temperature with 100 nM FAM-S6-ribosomal protein derived peptide (synthesized by Alta Biosciences, University of Birmingham UK) in the presence of 1 μM ATP and 0.5 mM MgCl2 in 20 mM Tris buffer (pH 7.4) containing 0.01% Tween-20 and 1 mM DTT (MRCKα and β); or 1 μM ATP, 10 mM MgCl2 in 20 mM Tris buffer (pH 7.5) containing 0.25 mM EGTA 0.01% Triton X-100 and 1 mM DTT (ROCK1 and ROCK2). Typically, dose response analyses were performed over concentration ranges from 0.005-100 μM. Reactions were stopped by adding 2 assay volumes of 0.25% (v/v) IMAP binding reagent in 1×IMAP binding buffer A (Molecular Devices). After 30 min incubation to allow binding reagent to bind phosphorylated peptide, fluorescence polarization was measured on a Tecan Saphire^2 plate reader at excitation (470 nm) and emission (530 nm) wavelengths.

[4] = biological target: T1, MRCKβ; assay: MRCKβ cellular assay (pMLC T18/S19 immunoblot, MDA-MB-231 cells with doxycycline inducible kinase domain); type: cell-based
Method: (§2) MRCKβ, ROCK1 and ROCK2 Cellular Assays
(§3) MDA-MB-231 cells expressing doxycycline inducible ROCK1, ROCK2 or MRCKβ kinase domains were plated at 1.1×10^5 cells per well of a 12 well plate. After 24 hours, cells were treated with 1 μg/ml doxycycline for 18 hours to induce kinase domain expression and then tested over a suitable concentration range with compounds of the invention for 60 minutes. Cells were then washed with PBS and lysed with Tris-SDS lysis Buffer (50 mM Tris-HCl pH7.4, 0.5% (v/v) SDS, 1×PhosStop Inhibitors (04 906 837 001; Roche) and 1×Complete Protease Inhibitors (04 693 124 001; Roche)). Whole cell lysates were clarified by passing through QIAshredder spin columns, separated by SDS-PAGE, and quantitative immunoblotting performed using a LI-COR Odyssey IR scanner to determine pMLC (T18/S19) and α-Tubulin levels.

[5] = biological target: T2, ROCK1 (Homo sapiens (Human), UniProt Q13464); assay: ROCK1 cellular assay (pMLC T18/S19 immunoblot, MDA-MB-231 cells with doxycycline inducible kinase domain); type: cell-based
Method: as §2, §3

[6] = biological target: T2, ROCK1; details: read-out: ROCK1 Average Ki; 1 μM ATP
[7] = biological target: T2, ROCK1; assay: biochemical
[8] = 1 μM ATP, read-out: MRCK-a Average Ki
[9] = 1 μM ATP, read-out: MRCK-B Average Ki
[10] = 1 μM ATP, read-out: ROCK2 Average Ki
[11] = MDA-MB-231 cells, doxycycline inducible kinase domain, 60 minutes, pMLC (T18/S19), read-out: Cellular assay - MRCK-b inhibition MEAN
[12] = MDA-MB-231 cells, doxycycline inducible kinase domain, 60 minutes, pMLC (T18/S19), read-out: Cellular assay - ROCK1 inhibition MEAN

Chain of MRCKα (Q5VT25 whole entry): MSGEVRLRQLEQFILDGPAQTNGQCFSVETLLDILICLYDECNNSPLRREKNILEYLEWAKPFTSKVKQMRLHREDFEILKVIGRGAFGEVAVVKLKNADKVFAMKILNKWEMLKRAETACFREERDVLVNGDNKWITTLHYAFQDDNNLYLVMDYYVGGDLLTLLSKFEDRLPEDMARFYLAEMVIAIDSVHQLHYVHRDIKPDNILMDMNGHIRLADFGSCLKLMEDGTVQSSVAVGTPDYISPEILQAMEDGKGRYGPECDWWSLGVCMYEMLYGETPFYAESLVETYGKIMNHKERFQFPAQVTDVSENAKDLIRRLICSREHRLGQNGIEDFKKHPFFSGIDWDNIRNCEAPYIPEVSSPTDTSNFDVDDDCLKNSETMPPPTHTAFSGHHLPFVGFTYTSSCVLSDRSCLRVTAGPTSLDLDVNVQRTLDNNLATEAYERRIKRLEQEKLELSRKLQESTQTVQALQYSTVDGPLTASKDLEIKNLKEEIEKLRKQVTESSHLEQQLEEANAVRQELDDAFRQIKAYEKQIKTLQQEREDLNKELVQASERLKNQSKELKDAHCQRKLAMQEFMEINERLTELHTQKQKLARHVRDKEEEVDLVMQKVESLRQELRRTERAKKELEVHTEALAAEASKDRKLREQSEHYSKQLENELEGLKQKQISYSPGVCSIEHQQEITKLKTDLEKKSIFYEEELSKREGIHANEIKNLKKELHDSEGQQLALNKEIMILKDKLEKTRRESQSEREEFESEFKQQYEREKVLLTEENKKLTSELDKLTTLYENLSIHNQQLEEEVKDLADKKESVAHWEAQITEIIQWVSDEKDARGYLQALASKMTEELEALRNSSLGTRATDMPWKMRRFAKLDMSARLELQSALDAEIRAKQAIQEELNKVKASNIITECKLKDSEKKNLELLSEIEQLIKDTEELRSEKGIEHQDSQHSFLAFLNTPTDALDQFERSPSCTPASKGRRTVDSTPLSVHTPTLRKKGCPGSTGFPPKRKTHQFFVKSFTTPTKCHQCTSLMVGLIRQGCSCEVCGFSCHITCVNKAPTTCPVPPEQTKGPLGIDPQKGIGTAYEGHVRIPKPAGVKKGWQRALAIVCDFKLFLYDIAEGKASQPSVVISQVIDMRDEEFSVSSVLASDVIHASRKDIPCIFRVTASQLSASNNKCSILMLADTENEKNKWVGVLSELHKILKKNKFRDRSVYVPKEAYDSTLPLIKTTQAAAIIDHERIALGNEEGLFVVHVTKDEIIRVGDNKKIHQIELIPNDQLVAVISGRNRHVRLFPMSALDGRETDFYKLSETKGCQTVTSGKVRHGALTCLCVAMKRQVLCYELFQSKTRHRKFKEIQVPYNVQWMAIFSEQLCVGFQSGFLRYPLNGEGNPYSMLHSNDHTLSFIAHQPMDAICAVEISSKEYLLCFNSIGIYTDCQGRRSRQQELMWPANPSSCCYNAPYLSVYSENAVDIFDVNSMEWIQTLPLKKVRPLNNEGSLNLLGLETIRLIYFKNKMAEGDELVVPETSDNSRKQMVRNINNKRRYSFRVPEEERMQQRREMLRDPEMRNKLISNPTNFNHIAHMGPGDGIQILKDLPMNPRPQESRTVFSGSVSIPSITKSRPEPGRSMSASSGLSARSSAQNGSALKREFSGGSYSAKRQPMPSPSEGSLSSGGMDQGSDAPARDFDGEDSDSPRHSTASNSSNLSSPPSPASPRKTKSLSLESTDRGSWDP
Chain of ROCK2 (O75116 whole entry, the tested form may be a part): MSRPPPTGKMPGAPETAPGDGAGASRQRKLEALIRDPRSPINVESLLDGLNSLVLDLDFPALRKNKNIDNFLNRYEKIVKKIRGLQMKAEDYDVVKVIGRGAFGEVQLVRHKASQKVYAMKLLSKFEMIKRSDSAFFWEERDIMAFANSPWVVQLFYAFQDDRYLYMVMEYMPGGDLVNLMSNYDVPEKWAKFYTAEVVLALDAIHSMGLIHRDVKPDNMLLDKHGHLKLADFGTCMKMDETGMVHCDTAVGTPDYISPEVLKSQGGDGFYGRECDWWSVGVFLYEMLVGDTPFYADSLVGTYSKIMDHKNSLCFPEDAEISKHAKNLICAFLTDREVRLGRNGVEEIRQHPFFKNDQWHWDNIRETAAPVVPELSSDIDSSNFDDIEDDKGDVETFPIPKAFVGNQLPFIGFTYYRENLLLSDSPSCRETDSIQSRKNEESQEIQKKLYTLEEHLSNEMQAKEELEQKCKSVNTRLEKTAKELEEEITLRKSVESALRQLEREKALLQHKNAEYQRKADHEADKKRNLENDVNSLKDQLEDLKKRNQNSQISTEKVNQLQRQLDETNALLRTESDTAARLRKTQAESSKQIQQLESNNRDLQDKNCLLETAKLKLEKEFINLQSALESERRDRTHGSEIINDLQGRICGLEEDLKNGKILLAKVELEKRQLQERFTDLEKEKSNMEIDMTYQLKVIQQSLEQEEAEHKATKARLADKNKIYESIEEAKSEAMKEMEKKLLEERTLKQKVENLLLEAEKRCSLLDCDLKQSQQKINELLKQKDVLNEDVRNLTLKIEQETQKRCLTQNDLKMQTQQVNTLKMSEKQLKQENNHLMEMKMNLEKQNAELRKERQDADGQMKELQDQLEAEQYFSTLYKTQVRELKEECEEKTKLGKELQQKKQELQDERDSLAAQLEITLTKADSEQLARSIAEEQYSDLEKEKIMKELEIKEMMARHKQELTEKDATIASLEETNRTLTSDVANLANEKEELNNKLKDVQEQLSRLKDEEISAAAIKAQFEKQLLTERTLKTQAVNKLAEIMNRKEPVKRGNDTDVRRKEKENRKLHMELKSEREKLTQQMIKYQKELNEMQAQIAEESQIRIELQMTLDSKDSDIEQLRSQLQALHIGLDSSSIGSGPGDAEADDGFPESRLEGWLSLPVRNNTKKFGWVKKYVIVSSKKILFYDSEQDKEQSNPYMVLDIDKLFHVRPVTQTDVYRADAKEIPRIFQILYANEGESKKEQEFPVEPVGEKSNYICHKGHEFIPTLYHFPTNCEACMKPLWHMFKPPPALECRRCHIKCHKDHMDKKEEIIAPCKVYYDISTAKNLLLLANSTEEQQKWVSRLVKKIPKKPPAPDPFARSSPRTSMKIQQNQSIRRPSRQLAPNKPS
T2 sequence (Q13464 2-1354 limits assumed): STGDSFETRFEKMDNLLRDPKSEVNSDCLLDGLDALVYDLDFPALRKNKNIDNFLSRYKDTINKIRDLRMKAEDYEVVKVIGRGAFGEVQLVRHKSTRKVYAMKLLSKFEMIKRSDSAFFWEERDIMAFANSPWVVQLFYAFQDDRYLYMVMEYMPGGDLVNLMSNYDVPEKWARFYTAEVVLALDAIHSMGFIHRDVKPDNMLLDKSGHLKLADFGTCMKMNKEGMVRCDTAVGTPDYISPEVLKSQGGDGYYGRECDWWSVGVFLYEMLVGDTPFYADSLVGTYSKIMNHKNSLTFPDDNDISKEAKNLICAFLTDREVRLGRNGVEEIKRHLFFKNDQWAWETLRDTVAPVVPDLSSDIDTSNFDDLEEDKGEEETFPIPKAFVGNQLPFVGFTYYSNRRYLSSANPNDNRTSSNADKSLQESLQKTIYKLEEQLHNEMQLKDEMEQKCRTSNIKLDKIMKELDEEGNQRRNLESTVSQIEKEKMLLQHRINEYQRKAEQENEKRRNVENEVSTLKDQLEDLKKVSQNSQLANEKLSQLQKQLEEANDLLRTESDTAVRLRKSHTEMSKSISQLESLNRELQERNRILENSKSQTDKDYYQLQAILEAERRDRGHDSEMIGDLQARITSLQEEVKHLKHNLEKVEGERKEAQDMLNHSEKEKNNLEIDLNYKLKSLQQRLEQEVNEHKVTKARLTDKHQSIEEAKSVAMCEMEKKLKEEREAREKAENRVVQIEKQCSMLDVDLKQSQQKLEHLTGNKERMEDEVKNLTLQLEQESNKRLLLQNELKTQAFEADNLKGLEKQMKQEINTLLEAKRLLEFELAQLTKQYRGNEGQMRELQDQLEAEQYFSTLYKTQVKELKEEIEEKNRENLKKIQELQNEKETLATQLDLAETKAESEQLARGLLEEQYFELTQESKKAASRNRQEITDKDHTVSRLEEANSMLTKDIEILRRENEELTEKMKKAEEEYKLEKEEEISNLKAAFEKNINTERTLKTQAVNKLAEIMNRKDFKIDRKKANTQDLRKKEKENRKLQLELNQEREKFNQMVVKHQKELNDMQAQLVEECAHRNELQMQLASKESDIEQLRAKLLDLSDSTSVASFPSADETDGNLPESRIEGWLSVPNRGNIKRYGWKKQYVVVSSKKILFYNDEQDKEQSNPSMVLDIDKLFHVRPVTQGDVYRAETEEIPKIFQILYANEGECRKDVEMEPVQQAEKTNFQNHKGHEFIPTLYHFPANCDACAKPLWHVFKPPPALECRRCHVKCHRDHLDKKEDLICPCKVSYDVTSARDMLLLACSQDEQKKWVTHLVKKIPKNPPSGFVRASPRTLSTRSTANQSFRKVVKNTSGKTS

Molecule	Ki [1, 8]	Ki [2, 9]	Ki [3, 10]	IC50 [4, 11]	IC50 [5, 12]	Ki [6]	Ki [7]	Ki [1]	Ki [2]	Ki [3]	IC50 [4]	IC50 [5]
3-ethyl-1-[3-(5-methylthiazol-2-yl)-1H-pyrrolo[2,3-b]pyridin-4-yl]piperidin-3-amine [Example E177]	0.0822 nM	0.0888 nM	96.2 nM	274 nM	> 30000 nM	33.7 nM						
c1ncc(-c2c[nH]c3nccc(N[C@H]4CCCNC4)c23)cn1 [Example E87, N-[(3S)-3-piperidyl]-3-pyrimidin-5-yl-1H-pyrrolo[2,3-b]pyridin-4-amine]	33.6 nM	54.3 nM	326 nM				50300 nM					
OC1CCN([C@H]2CCCN(c3ccnc4[nH]cc(-c5cncnc5)c34)C2)C1 (stereo partly drawn) [Example E93, [(3S)-1-(3-pyrimidin-5-yl-1H-pyrrolo[2,3-b]pyridin-4-yl)-3-piperidyl]pyrrolidin-3-ol]	11.6 nM	4.78 nM	830 nM				2380 nM					
c1cc(N2CCCC3(CCCCN3)C2)c2c(-c3cnsc3)c[nH]c2n1 (stereo not drawn) [Example E114, 4-[4-(1,8-diazaspiro[5.5]undecan-8-yl)-1H-pyrrolo[2,3-b]pyridin-3-yl]isothiazole]	0.0683 nM	0.0813 nM	6.42 nM	40.5 nM			18.3 nM					
c1ncc(-c2c[nH]c3nccc(N4CC[C@@]5(CCCCN5)C4)c23)cn1 [Example E126, (5S)-2-(3-pyrimidin-5-yl-1H-pyrrolo[2,3-b]pyridin-4-yl)-2,6-diazaspiro[4.5]decane]	0.0413 nM	0.057 nM	23.1 nM	1270 nM	> 30000 nM	68.3 nM						
c1cc(N2CCC3(CCCCN3)C2)c2c(-c3ncsn3)c[nH]c2n1 (stereo not drawn) [Example E129, 3-[4-(2,6-diazaspiro[4.5]decan-2-yl)-1H-pyrrolo[2,3-b]pyridin-3-yl]-1,2,4-thiadiazole]							108 nM	0.0518 nM	0.206 nM	23.6 nM	729 nM	
c1csc(-c2c[nH]c3nccc(N4CC[C@@]5(CCCCN5)C4)c23)n1 [Example E133, 2-[4-[(5S)-2,6-diazaspiro[4.5]decan-2-yl]-1H-pyrrolo[2,3-b]pyridin-3-yl]thiazole]							25.9 nM	0.0149 nM	0.03 nM	6.41 nM	108 nM	
c1ccc(-c2c[nH]c3nccc(N4CCC[C@@]5(CCCCN5)C4)c23)nc1 [Example E139, (6S)-8-[3-(2-pyridyl)-1H-pyrrolo[2,3-b]pyridin-4-yl]-1,8-diazaspiro[5.5]undecane]	0.0435 nM	0.0391 nM	41 nM	107 nM	> 30000 nM	99.1 nM						
c1csc(-c2c[nH]c3nccc(N4CCC5(CCCCN5)C4)c23)n1 (stereo not drawn) [Example E155, 2-[4-(2,6-diazaspiro[4.5]decan-2-yl)-1H-pyrrolo[2,3-b]pyridin-3-yl]thiazole]							79.5 nM		0.0822 nM		218 nM	
Fc1cccnc1-c1c[nH]c2nccc(N3CCCC4(CCCCN4)C3)c12 (stereo not drawn) [Example E169, 8-[3-(3-fluoro-2-pyridyl)-1H-pyrrolo[2,3-b]pyridin-4-yl]-1,8-diazaspiro[5.5]undecane]	0.189 nM	0.106 nM	261 nM	732 nM			861 nM					
Fc1ccc(-c2c[nH]c3nccc(N4CCCC5(CCCCN5)C4)c23)nc1 (stereo not drawn) [Example E170, 8-[3-(5-fluoro-2-pyridyl)-1H-pyrrolo[2,3-b]pyridin-4-yl]-1,8-diazaspiro[5.5]undecane]	0.17 nM	0.1 nM	165 nM	612 nM			564 nM					
Fc1cncc(-c2c[nH]c3nccc(N4CCCC5(CCCCN5)C4)c23)c1 (stereo not drawn) [Example E171, 8-[3-(5-fluoro-3-pyridyl)-1H-pyrrolo[2,3-b]pyridin-4-yl]-1,8-diazaspiro[5.5]undecane]	0.0639 nM	0.0648 nM	85.2 nM	233 nM			207 nM					
c1cc(-c2c[nH]c3nccc(N4CCC[C@@]5(CCCCN5)C4)c23)cnn1 [Example E174, (6S)-8-(3-pyridazin-4-yl-1H-pyrrolo[2,3-b]pyridin-4-yl)-1,8-diazaspiro[5.5]undecane]		0.0256 nM		50.9 nM	2250 nM		405 nM					
N#Cc1c[nH]c2nccc(N3CCC[C@@]4(CCCCN4)C3)c12 [Example E187, 4-[(6S)-1,8-diazaspiro[5.5]undecan-8-yl]-1H-pyrrolo[2,3-b]pyridine-3-carbonitrile]	0.249 nM	0.179 nM	44.2 nM			152 nM					782 nM	> 30000 nM
CCN1CCCCC12CCCN(c1ccnc3[nH]cc(C#N)c13)C2 (stereo not drawn) [Example E211, 4-(1-ethyl-1,8-diazaspiro[5.5]undecan-8-yl)-1H-pyrrolo[2,3-b]pyridine-3-carbonitrile]	0.631 nM	0.351 nM	34.3 nM			245 nM					952 nM	> 30000 nM
c1ncc(-c2c[nH]c3nccc(OC[C@H]4CCCNC4)c23)cn1 [Example E218, 4-[[(3S)-3-piperidyl]methoxy]-3-pyrimidin-5-yl-1H-pyrrolo[2,3-b]pyridine]	0.189 nM	1.15 nM	17.6 nM				18.6 nM					
CN1CCC[C@@H](COc2ccnc3[nH]cc(-c4cncnc4)c23)C1 [Example E224, 4-[[(3R)-1-methyl-3-piperidyl]methoxy]-3-pyrimidin-5-yl-1H-pyrrolo[2,3-b]pyridine]	1.91 nM	3.29 nM	102 nM				152 nM					

The next lines start with results.

Ki [1, 8]	Ki [2, 9]	Ki [3, 10]	IC50 [4, 11]	IC50 [5, 12]	Ki [6]	Ki [7]	Molecule	Ki [1]	Ki [2]	Ki [3]	IC50 [4]	IC50 [5]
0.322 nM	0.238 nM	233 nM	1540 nM			11.9 nM	c1cc(-c2c[nH]c3nccc(N4CCC[C@H](NC5CC5)C4)c23)cnn1 [Example E46, (3S)-N-cyclopropyl-1-(3-pyridazin-4-yl-1H-pyrrolo[2,3-b]pyridin-4-yl)piperidin-3-amine]					
0.158 nM	0.304 nM	103 nM	1530 nM			595 nM	CN[C@H]1CCCN(c2ccnc3[nH]cc(-c4nccs4)c23)C1 [Example E47, (3S)-N-methyl-1-(3-thiazol-2-yl-1H-pyrrolo[2,3-b]pyridin-4-yl)piperidin-3-amine]					
0.238 nM	0.17 nM	99.2 nM	1780 nM			241 nM	CN[C@H]1CCCN(c2ccnc3[nH]cc(-c4ccncn4)c23)C1 [Example E66, (3S)-N-methyl-1-(3-pyrimidin-4-yl-1H-pyrrolo[2,3-b]pyridin-4-yl)piperidin-3-amine]					
0.0317 nM	0.0652 nM	4.41 nM	420 nM		10.6 nM		c1cc(-c2c[nH]c3nccc(N4CC[C@@]5(CCCCN5)C4)c23)ncn1 [Example E128, (5S)-2-(3-pyrimidin-4-yl-1H-pyrrolo[2,3-b]pyridin-4-yl)-2,6-diazaspiro[4.5]decane]					
	0.065 nM	30.9 nM	< 30 nM		89 nM		c1cc(-c2c[nH]c3nccc(N4CCCC5(CCCCN5)C4)c23)ncn1 (stereo not drawn) [Example E168, 8-(3-pyrimidin-4-yl-1H-pyrrolo[2,3-b]pyridin-4-yl)-1,8-diazaspiro[5.5]undecane]					
0.0934 nM	0.0923 nM	42 nM	255 nM			67.1 nM	CC1(N)CCCN(c2ccnc3[nH]cc(-c4nccs4)c23)C1 (stereo not drawn) [Example E176, 3-methyl-1-(3-thiazol-2-yl-1H-pyrrolo[2,3-b]pyridin-4-yl)piperidin-3-amine]					
0.517 nM	0.181 nM	119 nM	622 nM		423 nM		CC1(N)CCCN(c2ccnc3[nH]cc(-c4cncnc4)c23)C1 (stereo not drawn) [Example E178, 3-methyl-1-(3-pyrimidin-5-yl-1H-pyrrolo[2,3-b]pyridin-4-yl)piperidin-3-amine]					
0.0189 nM	0.0277 nM	4.19 nM	138 nM	> 30000 nM	20.6 nM		CN1CCCC[C@@]12CCCN(c1ccnc3[nH]cc(-c4ccncn4)c13)C2 [Example E206, (6S)-1-methyl-8-(3-pyrimidin-4-yl-1H-pyrrolo[2,3-b]pyridin-4-yl)-1,8-diazaspiro[5.5]undecane]					
0.0275 nM	0.0395 nM	8.34 nM	170 nM	> 30000 nM	20 nM		CCN1CCCC[C@@]12CCCN(c1ccnc3[nH]cc(-c4ccncn4)c13)C2 [Example E207, (6S)-1-ethyl-8-(3-pyrimidin-4-yl-1H-pyrrolo[2,3-b]pyridin-4-yl)-1,8-diazaspiro[5.5]undecane]					
